The source of these data is ChEMBL document CHEMBL1649232 (Antimicrob Agents Chemother, 2009).

Structures are written as SMILES.

Data set [1] in a line: Drug level in sputum of healthy human between 6 to 24 hrs postdosing. The format is ADME, tissue-based. The following applies: in vivo.
The nature of data set [2]: Cmax in healthy human at […] parenteral dose. The format is ADME, organism-based. The following applies: in vivo.

`CC(=O)N[C@H]1[C@H]([C@H](O)[C@H](O)CO)OC(C(=O)O)=C[C@@H]1N=C(N)N` [ZANAMIVIR] registered a Drug uptake in data set [1] of 47 ng/mL. Regarding `CCC(CC)[C@H](NC(C)=O)[C@@H]1[C@H](O)[C@@H](C(=O)O)C[C@H]1NC(=N)N` [PERAMIVIR ANHYDROUS], the highest concentration (Cmax) in data set [2] turned out to be 10000 ng/mL.

A word on the Cmax: it is the maximum level reached in the sampled fluid or tissue.
